Experimental data taken from patent US5464617A, “β-lactam compounds” (Hoffmann-La Roche Inc., priority 1994, dated 1995).
In brackets after ≈: the same amount, converted by molar mass. Where a name gives a salt, the structure may show the parent alone.

What was measured:
[1] = tested on: Citrobacter freundii 1982; experiment: MIC in vitro of a 1:4 combination of ceftriaxone with a compound of formula I (Test D); type: cell-based; settings: for MIC C. freundii 1982 (D): test D; for MIC C. freundii 1982: Table 2
Experimental: The minimum inhibitory concentration in vitro ([…]) of a 1:4 combination of ceftriaxone with a compound of formula I against Citrobacter freundii 1982 was measured and compiled in Table 2 hereinafter.

E. coli 1346 = experiment: Antibacterial activity of the products per se, serial dilution method in liquid medium (Test E); type: cell-based; settings: product per se; for MIC E. coli 1346 (E): test E; for MIC E. coli 1346: Table 3, liquid medium
Description: The antibacterial activity of the products per se is illustrated on the basis of Table 3 hereinafter, the minimum inhibitory concentration […] in vitro against E. coli 1346 being determined using the serial dilution method in liquid medium: […]

[2] = Table 4, 1:4 combination of ceftriaxone with the compound
[3] = Table 5, particularly preferred products, 1:4 combination with ceftriaxone
[4] = Table 5, particularly preferred products
[5] = 1:4 combination of ceftriaxone with the compound

SMILES	MIC C. freundii 1982 (D) [1, 2] [µg/mL]	MIC E. coli 1346 (E) (E. coli 1346; Table 4) [µg/mL]	also measured
CC(=O)OCC1=C(C(=O)O)N2C(=O)[C@@H]3[C@H]2[C@H](C1)CN3C(=O)NCC(=O)OCc1ccccc1 [25(b), (1aS,3aR,6bR)-5-Acetoxymethyl-2-benzyloxycarbonylmethylcarbamoyl-1-oxo-1a,2,3,3a,4,6b-hexahydro-1H-2,6a-diazacyclobut[cd]indene-6-carboxylic acid sodium salt]	0.25	4	–
NC(=O)OCC1=C(C(=O)O)N2C(=O)[C@@H]3[C@H]2[C@H](C1)CN3C(=O)NCCc1cccs1 [27(g), (1aS,3aR,6bR)-5-Carbamoyloxymethyl-1-oxo-2-(2-thiophen-2-yl-ethylcarbamoyl)-1a,2,3,3a,4,6b-hexahydro-1H-2,6a-diazacyclobut[cd]indene-6-carboxylic acid sodium salt]	0.5	> 32	–
O=C([O-])C1=C(CSc2cc[n+](Cc3ccccc3)cc2)C[C@@H]2CN(C(=O)C(F)(F)F)[C@@H]3C(=O)N1[C@H]23 [52(d), (1aS,3aR,6bR)-5-(1-Benzyl-pyridin-4-yliosulphanylmethyl)-1-oxo-2-trifluoroacetyl-1a,2,3,3a,4,6b-hexahydro-1H-2,6a-diazacyclobut[cd]indene-6-carboxylate]	1	2 (≈ 3.97 µM)	–
COC(=O)CN1C[C@H]2CC(COC(N)=O)=C(C(=O)O)N3C(=O)[C@@H]1[C@@H]23 [59(b), (1aS,3aR,6bR)-5-Carbamoyloxymethyl-2-methoxycarbonylmethyl-1-oxo-1a,2,3,3a,4,6b-hexahydro-1H-2,6a-diazacyclobut[cd]indene-6-carboxylic acid sodium salt]	0.5	2	–
CC(=O)N1C[C@H]2OC(CSc3nnnn3C)=C(C(=O)O)N3C(=O)[C@@H]1[C@@H]23 [Example 35, (1aS,3aR,6bS)-2-Acetyl-5-(1-methyl-1H-tetrazol-5-yl-sulphanylmethyl)-1-oxo-1,1a,2,3,3a,6b-hexahydro-4-oxa-2,6 a-diazacyclobut[cd]indene-6-carboxylic acid sodium salt]	–	–	MIC C. freundii 1982 (D) [1, 3]: 1 µg/mL; MIC E. coli 1346 (E) (E. coli 1346; [4]): 0.5 µg/mL
Nc1nnc(SC2=C(C(=O)O)N3C(=O)[C@@H]4[C@H]3[C@H](C2)CN4C(=O)Nc2ccc(O)cc2)s1 [3(l), (1aS,3aR,6bR)-5-(5-Amino-1,3,4-thiadiazol-2-ylsulphanyl)-2-(4-hydroxyphenylcarbamoyl)-1-oxo-1a,2,3,3a,4,6b-hexahydro-1H-2,6a-diazacyclobut[cd]indene-6-carboxylic acid sodium salt]	–	–	MIC C. freundii 1982 [1, 5]: 0.5 µg/mL; MIC C. freundii 1982 (D) [1, 3]: 0.5 µg/mL; MIC E. coli 1346 (E. coli 1346): 8 µg/mL; MIC E. coli 1346 (E) (E. coli 1346; [4]): 8 µg/mL
Cn1nnnc1SCC1=C(C(=O)O)N2C(=O)[C@@H]3[C@H]2[C@H](C1)CN3C(=O)NCc1ccc(O)cc1 [18(h), (1aS,3aR,6bR)-2-(4-Hydroxy-benzylcarbamoyl)-5-(1-methyl-1H-tetrazol-5-ylsulphanylmethyl)-1-oxo-1a,2,3,3a,4,6b-hexahydro-1H-2,6a-diazacyclobut[cd]indene-6-carboxylic acid sodium salt]	0.5	16	–
Nc1nnc(SCC2=C(C(=O)O)N3C(=O)[C@@H]4[C@H]3[C@H](C2)CN4C(=O)C(F)(F)F)s1 [19(h), (1aS,3aR,6bR)-5-(5-Amino-1,3,4-thiadiazol-2-ylsulphanylmethyl)-1-oxo-2-trifluoroacetyl-1a,2,3,3a,4,6b-hexahydro-1H-2,6a-diaza-cyclobut[cd]indene-6-carboxylic acid sodium salt]	0.5	2	–
Cn1nnnc1SCC1=C(C(=O)O)N2C(=O)[C@@H]3[C@H]2[C@H](C1)CN3C(=O)CC#N [Example 19(d), (1aS,3aR,6bR)-2-Cyanoacetyl-5-(1-methyl-1H-tetrazol-5-ylsulphanylmethyl)-1-oxo-1a,2,3,3a,4,6b-hexahydro-1H-2,6a-diazacyclobut[cd]indene-6-carboxylic acid sodium salt]	0.25	2	–
CC(=O)N1C[C@H]2CC(Sc3ccncc3)=C(C(=O)O)N3C(=O)[C@@H]1[C@@H]23 [Example 3(ah), (1aS,3aR,6bR)-2-Acetyl-1-oxo-5-(pyridin-4-ylsulphanyl)-1a,2,3,3a,4,6b-hexahydro-1H-2,6a-diazacyclobut[cd]indene-6-carboxylic acid sodium salt]	2	8	–
Cc1nnc(SCC2=C(C(=O)O)N3C(=O)[C@@H]4[C@H]3[C@H](C2)CN4C(=O)CSCC(N)=O)s1 [65(g), (1aS,3aR,6bR)-2-Carbamoylmethylsulphanylacetyl-5-(5-methyl-1,3,4-thiadiazol-2-ylsulphanylmethyl)-1-oxo-1a,2,3,3a,4,6b-hexahydro-1H-2,6a-diazacyclobut[cd]indene-6-carboxylic acid sodium salt]	0.5	8	–
O=C(O)C1=C(CSc2ccncc2)C[C@@H]2CN(C(=O)C(F)(F)F)[C@@H]3C(=O)N1[C@H]23 [19(g), (1aS,3aR,6bR)-1-Oxo-5-(pyridin-4-ylsulphanylmethyl)-2-trifluoroacetyl-1a,2,3,3a,4,6b-hexahydro-1H-2,6a-diazacyclobut[cd]indene-6-carboxylic acid sodium salt]	–	–	MIC C. freundii 1982 (D) [1, 3]: 1 µg/mL; MIC E. coli 1346 (E) (E. coli 1346; [4]): 1 µg/mL
CC(=O)N1C[C@H]2CC(Sc3nnc(C)s3)=C(C(=O)O)N3C(=O)[C@@H]1[C@@H]23 [3(ac), (1aS,3aR,6bR)-2-Acetyl-5-(5-methyl-1,3,4-thiadiazol-2-ylsulphanyl)-1-oxo-1a,2,3,3a,4,6b-hexahydro-1H-2,6a-diazacyclobut[cd]indene-6-carboxylic acid sodium salt]	4	8	–
COC(=O)CC1=C(C(=O)O)N2C(=O)[C@H]3NC[C@@H](C1)[C@H]32 [Example 12(b), (1aS,3aR,6bR)-5-Methoxycarbonylmethyl-1-oxo-1a,2,3,3a,4,6b-hexahydro-1H-2,6a-diazacyclobut[cd]indene-6-carboxylic acid trifluoroacetate]	–	–	MIC C. freundii 1982 [1, 5]: 4 µg/mL; MIC E. coli 1346 (E. coli 1346): 8 µg/mL
C[n+]1ccc(SCC2=C(C(=O)[O-])N3C(=O)[C@H]4NC[C@@H](C2)[C@H]43)cc1 [Example 20, (1aS,3aR,6bR)-5-(1-Methyl-pyridin-4-yliosulphanylmethyl)-1-oxo-1a,2,3,3a,4,6b-hexahydro-1H-2,6a-diazacyclobut[cd]indene-6-carboxylate trifluoroacetate]	–	–	MIC C. freundii 1982 [1, 5]: 1 µg/mL; MIC E. coli 1346 (E. coli 1346): ≤ 0.5 µg/mL
NC(=O)OCC1=C(C(=O)O)N2C(=O)[C@@H]3[C@H]2[C@H](C1)CN3C(=O)Nc1ccc(C(N)=O)cc1 [27(b), (1aS,3aR,6bR)-5-Carbamoyloxymethyl-2-(4-carbamoylphenylcarbamoyl)-1-oxo-1a,2,3,3a,4,6b-hexahydro-1H-2,6a-diazacyclobut[cd]indene-6-carboxylic acid sodium salt]	–	–	MIC C. freundii 1982 (D) [1, 3]: ≤ 0.06 µg/mL; MIC E. coli 1346 (E) (E. coli 1346; [4]): > 32 µg/mL

The next lines start with results.

MIC C. freundii 1982 (D) [1, 2] [µg/mL]	MIC E. coli 1346 (E) (E. coli 1346; Table 4) [µg/mL]	SMILES	also measured
0.5	1	Cn1nnnc1SCC1=C(C(=O)O)N2C(=O)[C@H]3NC[C@@H](O1)[C@H]32 [Example 29(e), (1aS,3aR,6bS)-5-(1-Methyl-1H-tetrazol-5-ylsulphanylmethyl)-1-oxo-1,1a,2,3,3a,6b-hexahydro-4-oxa-2,6a-diazacyclobut[cd]indene-6-carboxylic acid sodium salt]	–
8	4	O=C(O)C1=C(CSc2nc(-c3cccnc3)cs2)C[C@@H]2CN[C@@H]3C(=O)N1[C@H]23 [Example 66, (1aS,3aR,6bR)-1-Oxo-5-(4-pyridin-3-yl-thiazol-2-ylsulphanylmethyl)-1a,2,3,3a,4,6b-hexahydro-1H-2,6a-diazacyclobut[cd]indene6-carboxylic acid trifluoroacetate]	–
0.5	> 32	Cc1nnc(SCC2=C(C(=O)O)N3C(=O)[C@@H]4[C@H]3[C@H](C2)CN4C(=O)Nc2ccc(O)cc2)s1 [Example 64, (1aS,3aR,6bR)-2-(4-Hydroxy-phenylcarbamoyl)-5-(5-methyl-1,3,4-thiadiazol-2-ylsulphanylmethyl)-1-oxo-1a,2,3,3a,4,6b-hexahydro-1H-2,6a-diazacyclobut[cd]indene-6-carboxylic acid sodium salt]	–
4	2	CC(=O)NCC1=C(C(=O)O)N2C(=O)[C@H]3NC[C@@H](C1)[C@H]32 [Example 84, (1aS,3aR, 6bR)-5-Acetylaminomethyl-1-oxo-l a,2,3,3a,4,6b-hexahydro-1H-2,6a-diazacyclobut[cd]indene-6-carboxylic acid trifluoroacetate]	–
2	8	NC(=O)Cn1nnnc1SCC1=C(C(=O)O)N2C(=O)[C@@H]3[C@H]2[C@@H](CN3C(=O)C(F)(F)F)O1 [Example 39, (1aS,3aR,6bS)-5-(1-Carbamoylmethyl-1H-tetrazol-5-ylsulphanylmethyl)-1-oxo-2-trifluoroacetyl-1,1a,2,3,3a,6b-hexahydro-4-oxa-2,6a-diazacyclobut[cd]indene-6-carboxylic acid sodium salt]	–
0.5	> 32	CC(=O)NCC1=C(C(=O)O)N2C(=O)[C@@H]3[C@H]2[C@H](C1)CN3C(=O)Nc1ccc(O)cc1 [Example 85, (1aS,3aR,6bR)-5-Acetylaminomethyl-2-(4-hydroxy-phenylcarbamoyl)-1-oxo-1a,2,3,3a,4,6b-hexahydro-1H-2,6a-diazacyclobut[cd]indene-6-carboxylic acid sodium salt]	–
